In patent US20080152694A1, “Devices, Systems and Methods for Ophthalmic Drug Delivery” (priority 2006, published 2008):
Converted amounts (≈) assume the structure as drawn.

Legend:
[1] = Stability of gacyclidine forms in the presence of water; format: physicochemical; conditions: body temperature / in the presence of water
From the text: (§1) An advantage of using solid drug in an implanted device is, in at least some embodiments, the ability to store drug in the device using a smaller volume than might be required if a premixed (or other liquid) form of the drug were used. In some cases, this smaller volume enables implantation of a device containing enough drug to provide (when combined with an appropriate vehicle source) substantially continuous long term therapy. This long term therapy can be over a period of days, weeks, or months. In some cases, long term therapy may extend over several years. One example of a basic crystalline or solid amorphous drug suitable for use in methods according to some embodiments is gacyclidine. For example, it is estimated that 18 mg of solid gacyclidine eroded with an appropriate vehicle will deliver 100 μM drug over 4 years at a flow rate of 20 microliters per hour or less. […] Dissolution of the basic form of gacyclidine in water requires the presence of an acid (e.g., hydrochloric acid or lactic acid) to convert the basic form to the water-soluble acidic form. The concentration of gacyclidine in solution will therefore depend on the amount of acid available to convert the basic form to the acid form. […]

[2] = Dissolution of gacyclidine base pellets in a continuous flow reactor, eluted with Ringer's solution containing hydrochloric acid; format: physicochemical; conditions: for pH of the eluted drug solution: 20 μL/hr, room temperature (23±2° C.)
Description: A drug chamber similar to the one illustrated in FIG. 5 was loaded with 11 pellets of gacyclidine base having a combined mass of 18 mg. This drug-loaded chamber was eluted at a flow rate of 20 μL/hr at room temperature (23±2° C.) using a MiniMed 508 syringe pump (available from Medtronics MiniMed of Northridge, Calif.). The syringe was loaded with 3 mL of Ringer's solution containing 0.05 to 3 mM hydrochloric acid. The eluted volume was collected in PTFE tubing attached to the pump drug capsule assembly, after a 3-D antibacterial filter. The pH of this solution was determined by use of a pH meter equipped with a Calomel electrode. Drug concentration was determined by HPLC.
The highest pH of the eluted drug solution (5.9) was obtained at 0.05 mM hydrochloric acid, and the lowest pH of the eluted drug solution (5.6) was obtained at 3 mM hydrochloric acid. These pH values indicate quantitative conversion of the hydrochloric acid to the drug salt and are consistent with the pH expected for solutions of the hydrochloride salt.

[3] = Water solubility of gacyclidine forms; format: physicochemical
From the text: as §1

[4] = cited from earlier work
[5] = format: physicochemical; conditions: solid pellets exposed to a continuous stream of vehicle such as Ringer's solution
Description: Triamcinolone acetonide is commercially available as a crystalline solid with very low water solubility. If solid pellets of triamcinolone acetonide are exposed to a continuous stream of a vehicle, such as Ringer's solution, the expected concentration of extracted triamcinolone acetonide in solution should be 40 μM or less. A higher concentration of triamcinolone acetonide can be solubilized by including an amphipathic molecule in the vehicle. Such a pharmaceutically acceptable amphipathic molecule would be polysorbate 80 (e.g., TWEEN 80®). The concentration of triamcinolone acetonide solubilized can be increased above its water solubility, 40 μM, by adding the required amount of amphipathic molecule to the vehicle that will support the desired drug concentration. The invention is not limited to methods implemented through use of triamcinolone acetonide, Ringer's solution or polysorbate 80. Any sparingly soluble drug, pharmaceutically acceptable vehicle and pharmaceutically acceptable amphipathic molecule can be used.

| Compound | stability (in words) [1] | correlation in gacyclidine concentration per hydrochloric acid concentration used for elution ([2]; 0.05 to 3 mM hydrochloric acid in Ringer's solution, drug concentration by HPLC, FIG. 27) | pH of the eluted drug solution ([2]; Ringer's solution with 0.05 mM hydrochloric acid, highest pH) | pH of the eluted drug solution ([2]; Ringer's solution with 3 mM hydrochloric acid, lowest pH) | intercept at zero concentration of hydrochloric acid (gacyclidine concentration) ([2]; linear fit of eluted gacyclidine concentration vs hydrochloric acid concentration, FIG. 27) | water solubility (in words) [3] | water solubility [4] | expected concentration of extracted triamcinolone acetonide in solution [5] |
| --- | --- | --- | --- | --- | --- | --- | --- | --- |
| CC1CCCCC1(c1cccs1)N1CCCCC1 (stereo not shown) [gacyclidine] | much more stable than its acidic form | 0.976±0.049 | 5.9 | 5.6 | 0.0014 ± 0.0061 mM | sparingly soluble in water | – | – |
| C[C@H]1CCCC[C@@]1(c1cccs1)N1CCCCC1.Cl [hydrochloride salt of gacyclidine, gacyclidine hydrochloride] | unstable at body temperature | – | – | – | – | highly water soluble | – | – |
| CC1(C)O[C@@H]2C[C@H]3[C@@H]4CCC5=CC(=O)C=C[C@]5(C)[C@@]4(F)[C@@H](O)C[C@]3(C)[C@]2(C(=O)CO)O1 [triamcinolone acetonide] | – | – | – | – | – | – | 40 µM (≈ 17.4 µg/mL) | ≤ 40 µM |
